Results from US9840513B2 (AbbVie S.à.r.l., priority 2015, dated 2017).

Assays:
[1] = biological target: T1, F508delCFTR cell surface expression in CFBE41o-F508delCFTR-HRP cells (Homo sapiens, UniProt P13569, DEL508-508); assay: Cell Surface Expression-Horse Radish Peroxidase (CSE-HRP) Assay; format: cell-based; details: for EC50: CFBE41o-F508delCFTR-HRP cells, 18-24 hours at 33° C., 8-point curve, highest concentration 20 μM; for Maximum % activity (%): maximum at any tested concentration, normalized to on-plate positive control (3 μM)
T1 construct: fused on or other part: Horseradish peroxidase (HRP) reporter inserted in the fourth exofacial (extracellular) loop of CFTR; expression is doxycycline-inducible
In short: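 Correctors incubated 18-24 h at 33 °C on doxycycline-induced (0.5 μg/mL, 72 h) CFBE41o-F508delCFTR-HRP cells, 3-fold series from 20 μM. After DPBS washes, luminol luminescence read; activity expressed relative to DMSO and a 3 μM positive control, EC50 fitted from triplicate plates.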

[2] = biological target: T2, F508delCFTR in primary hBE cells with F508del/F508del CFTR mutation (Homo sapiens, UniProt P13569, DEL508-508); assay: Transepithelial Clamp Circuit on Human Bronchial Epithelial Cells Conductance Assay (hBE-TECC); format: cell-based; details: for EC50: primary hBE cells F508del/F508del, 18-24 hours at 37° C., equivalent short circuit current, 6 concentrations; for Maximum % activity (%): relative to positive control (3 μM) coupled with control potentiator
T2 construct: cells isolated from CF patients with the homozygous mutation; endogenous in cells; host or cells: primary human bronchial epithelial (hBE) cells from F508del/F508del CF patients
Excerpt: Transepithelial Clamp Circuit on Human Bronchial Epithelial Cells Conductance Assay:
A cell based assay using the primary human bronchial epithelial cells (hBE) was used as a secondary assay to test novel F508delCFTR correctors for their activity on primary hBE cells with F508del/F508del CFTR mutation. The assay used a TECC-24 (Transepithelial Clamp Circuit for 24 wells) instrument that measures the functionality of the mutated channel by measuring the equivalent short circuit current (Ieq) generated by the polarized epithelial cells. The instrument works by measuring the transepithelial potential difference (Vt) and transepithelial resistance (Rt) in an open circuit format, and the Ieq is calculated by using Ohms law (Ieq=Vt/Rt). The assay was run in a 24-well format and all 24-wells were measured at the same time point giving a higher throughput for this assay.
Primary human bronchial epithelial (hBE) cells from F508del/F508delCFTR patients were expanded from 1×10^6 to 250×10^6 cells (Neuberger T, Burton B, Clark H and VanGoor F; Cystic Fibrosis, Methods in Mole Biol 741; eds. Amaral M D and Kunzelmann K, 2011). For this purpose, cells isolated from CF patients with the homozygous mutation were seeded onto 24 well Corning (Cat #3378) filter plates that were coated with 3T3 conditioned media and grown at an air-liquid interface for 35 days using an Ultroser® G supplemented differentiation media. Apical surface mucus was removed 72 hours before the experiment using 3 mM dithiothreitol (DTT) in phosphate buffered saline (PBS). The apical surface was washed again 24 hours before the experiment using PBS. The cells were incubated with the desired dose response of the corrector compounds 18-24 hours at 37° C., 5% CO2. The corrector compounds are only added on the basolateral side of the epithelial cells.
On the day of measuring the corrector activity on the TECC, the cells were switched into a bicarbonate and serum free F-12 Coon's medium and allowed to equilibrate for 90 minutes in a CO2 free incubator. At the time of measurement, the apical and basolateral sides of the filter were bathed with the F-12 Coon's modification media (with 20 mM 4-(2-hydroxyethyl)-1-piperazineethanesulfonic acid (HEPES), pH 7.4 (using 1 M tris(hydroxymethyl)aminomethane (Tris)), and the measurements were made at 36.5° C. Transepithelial voltage (Vt) and transepithelial resistance (Rt) were measured using a 24 channel transepithelial current clamp (TECC-24). Current responses to the sequential addition of benzamil (apical 6 μM addition; for inhibiting epithelial ENaC channel), forskolin (apical and basolateral 10 μM addition; for activating the CFTR channel), control potentiator (N-(3-carbamoyl-5,5,7,7-tetramethyl-4,7-dihydro-5H-thieno[2,3-c]pyran-2-yl)-1H-pyrazole-5-carboxamide; apical and basolateral […] addition; for potentiating the CFTR channel) and bumetanide (basolateral 20 μM addition; for inhibiting the Na:2Cl:K co-transporter, an indirect measure of inhibiting the Cl-secretion driven by CFTR channel) were measured.
All plates contained negative controls (dimethyl sulfoxide, DMSO) which coupled with the control potentiator (N-(3-carbamoyl-5,5,7,7-tetramethyl-4,7-dihydro-5H-thieno[2,3-c]pyran-2-yl)-1H-pyrazole-5-carboxamide) sets the null response and positive controls (3 μM of 3-[(2R,4R)-4-({[1-(2,2-difluoro-1,3-benzodioxol-5-yl)cyclopropyl]carbonyl}amino)-7-methoxy-3,4-dihydro-2H-chromen-2-yl]benzoic acid) coupled with the control potentiator sets the 100% response to measure the correction of the mutated CFTR channel. The maximum percent activity is reported relative to the positive control value.
The % activity measured at each of the 6 test concentrations of the test compound was normalized to the on-plate positive control using the following formula: % activity=[[…]]*100 […]

T1 sequence (P13569 with tags, fused parts or gaps DEL508-508 limits assumed): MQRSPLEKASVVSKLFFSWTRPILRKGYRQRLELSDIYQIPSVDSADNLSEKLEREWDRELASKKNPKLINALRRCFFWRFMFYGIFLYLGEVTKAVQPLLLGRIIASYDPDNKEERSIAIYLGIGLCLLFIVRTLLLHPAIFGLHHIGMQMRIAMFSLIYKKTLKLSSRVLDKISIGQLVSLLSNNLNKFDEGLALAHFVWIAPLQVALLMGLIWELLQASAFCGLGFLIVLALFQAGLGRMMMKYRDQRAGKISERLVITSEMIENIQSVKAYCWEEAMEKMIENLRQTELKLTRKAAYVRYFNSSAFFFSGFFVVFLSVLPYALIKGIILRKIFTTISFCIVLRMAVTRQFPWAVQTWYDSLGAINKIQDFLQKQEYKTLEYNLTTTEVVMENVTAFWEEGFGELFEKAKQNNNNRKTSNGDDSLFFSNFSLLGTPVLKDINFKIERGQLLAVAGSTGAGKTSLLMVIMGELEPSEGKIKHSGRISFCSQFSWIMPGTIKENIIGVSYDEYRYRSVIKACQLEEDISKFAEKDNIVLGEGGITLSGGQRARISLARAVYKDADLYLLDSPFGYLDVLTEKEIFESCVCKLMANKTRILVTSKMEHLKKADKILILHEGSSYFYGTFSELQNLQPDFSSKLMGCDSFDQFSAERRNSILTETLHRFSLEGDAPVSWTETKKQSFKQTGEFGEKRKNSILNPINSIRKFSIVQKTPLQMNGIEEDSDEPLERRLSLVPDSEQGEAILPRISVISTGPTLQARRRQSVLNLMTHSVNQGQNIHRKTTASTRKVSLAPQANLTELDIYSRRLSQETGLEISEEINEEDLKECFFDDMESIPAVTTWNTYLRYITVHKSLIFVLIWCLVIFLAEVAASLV
T1 sequence (P13569 919-1480 limits assumed, stated change not applied): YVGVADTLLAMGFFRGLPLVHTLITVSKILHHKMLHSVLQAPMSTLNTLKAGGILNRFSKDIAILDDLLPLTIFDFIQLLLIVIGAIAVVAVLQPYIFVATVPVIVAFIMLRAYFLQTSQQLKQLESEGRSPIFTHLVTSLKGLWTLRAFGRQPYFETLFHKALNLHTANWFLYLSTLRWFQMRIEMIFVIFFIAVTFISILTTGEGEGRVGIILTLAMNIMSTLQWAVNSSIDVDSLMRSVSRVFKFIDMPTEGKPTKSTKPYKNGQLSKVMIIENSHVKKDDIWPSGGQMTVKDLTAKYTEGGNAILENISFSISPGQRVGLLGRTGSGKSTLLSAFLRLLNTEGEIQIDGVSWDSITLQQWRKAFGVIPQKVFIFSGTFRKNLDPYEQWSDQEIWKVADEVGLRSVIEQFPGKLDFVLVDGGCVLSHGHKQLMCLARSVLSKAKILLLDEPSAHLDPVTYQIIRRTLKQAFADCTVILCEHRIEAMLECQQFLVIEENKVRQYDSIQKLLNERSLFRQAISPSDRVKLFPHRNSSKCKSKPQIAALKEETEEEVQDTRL
T2 sequence (P13569 with tags, fused parts or gaps DEL508-508): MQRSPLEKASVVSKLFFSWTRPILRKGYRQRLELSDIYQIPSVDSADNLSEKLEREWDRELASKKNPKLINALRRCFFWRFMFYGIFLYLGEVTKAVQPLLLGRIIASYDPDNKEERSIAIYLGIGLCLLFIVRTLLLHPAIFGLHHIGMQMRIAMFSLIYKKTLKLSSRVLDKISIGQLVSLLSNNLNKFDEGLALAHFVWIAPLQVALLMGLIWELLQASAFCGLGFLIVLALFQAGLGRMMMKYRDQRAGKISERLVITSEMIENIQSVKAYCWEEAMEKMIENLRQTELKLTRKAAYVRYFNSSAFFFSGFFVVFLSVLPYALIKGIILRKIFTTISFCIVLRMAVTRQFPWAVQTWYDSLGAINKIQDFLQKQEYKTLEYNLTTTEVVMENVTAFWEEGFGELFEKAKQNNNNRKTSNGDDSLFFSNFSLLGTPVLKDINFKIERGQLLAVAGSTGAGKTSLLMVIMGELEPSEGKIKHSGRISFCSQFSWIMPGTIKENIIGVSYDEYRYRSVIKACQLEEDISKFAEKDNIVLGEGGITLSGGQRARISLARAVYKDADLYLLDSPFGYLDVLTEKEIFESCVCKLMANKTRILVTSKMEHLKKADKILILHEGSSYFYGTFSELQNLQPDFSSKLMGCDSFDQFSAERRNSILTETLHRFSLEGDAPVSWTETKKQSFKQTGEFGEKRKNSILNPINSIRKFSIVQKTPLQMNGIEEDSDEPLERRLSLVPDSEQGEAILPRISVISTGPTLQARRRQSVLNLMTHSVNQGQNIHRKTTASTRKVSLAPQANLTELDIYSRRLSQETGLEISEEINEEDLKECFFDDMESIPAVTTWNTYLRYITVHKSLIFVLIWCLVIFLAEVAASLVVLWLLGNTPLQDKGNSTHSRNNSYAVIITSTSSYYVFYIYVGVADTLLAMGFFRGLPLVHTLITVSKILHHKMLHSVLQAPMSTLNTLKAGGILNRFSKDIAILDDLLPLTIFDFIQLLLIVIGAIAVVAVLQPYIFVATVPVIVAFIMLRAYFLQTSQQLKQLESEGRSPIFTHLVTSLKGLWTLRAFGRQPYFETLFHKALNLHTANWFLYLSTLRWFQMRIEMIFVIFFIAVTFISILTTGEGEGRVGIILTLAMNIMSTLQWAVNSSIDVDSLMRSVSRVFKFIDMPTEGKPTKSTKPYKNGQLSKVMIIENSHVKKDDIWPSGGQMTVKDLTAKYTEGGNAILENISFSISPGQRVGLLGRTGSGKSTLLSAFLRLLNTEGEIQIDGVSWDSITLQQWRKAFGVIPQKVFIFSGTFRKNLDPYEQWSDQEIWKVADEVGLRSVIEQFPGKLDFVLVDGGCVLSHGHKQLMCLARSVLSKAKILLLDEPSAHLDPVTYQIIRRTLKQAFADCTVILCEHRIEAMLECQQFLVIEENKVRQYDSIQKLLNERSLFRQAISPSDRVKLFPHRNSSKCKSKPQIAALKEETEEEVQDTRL

EC50 [1] | Maximum % activity (%) [1] | EC50 [2] | Maximum % activity (%) [2] | Compound
480 nM | 109% | 197 nM | 79% | C[C@]1(C(=O)Nc2cc3cc(C4(CO)CCC4)n(C[C@@H](O)CO)c3cc2F)COc2cc3c(cc21)OC(F)(F)O3 [Example 134, (7R)—N-{1-[(2R)-2,3-dihydroxypropyl]-6-fluoro-2-[1-(hydroxymethyl)cyclobutyl]-1H-indol-5-yl}-2,2-difluoro-7-methyl-6,7-dihydro-2H-furo[2,3-f][1,3]benzodioxole-7-carboxamide]
2560 nM | 58% | 2700 nM | 62% | C[C@]1(C(=O)Nc2cc3cc(C4(CO)COC4)n(C[C@@H](O)CO)c3cc2F)COc2cc3c(cc21)OC(F)(F)O3 [Example 135, (7R)—N-{1-[(2R)-2,3-dihydroxypropyl]-6-fluoro-2-[3-(hydroxymethyl)oxetan-3-yl]-1H-indol-5-yl}-2,2-difluoro-7-methyl-6,7-dihydro-2H-furo[2,3-f][1,3]benzodioxole-7-carboxamide]
910 nM | 99% | 745 nM | 48% | C[C@]1(C(=O)Nc2cc3cc(C4(CO)CC4)n(C[C@@H](O)CO)c3cc2F)COc2cc3c(cc21)OC(F)(F)O3 [Example 136, (7R)—N-{1-[(2R)-2,3-dihydroxypropyl]-6-fluoro-2-[1-(hydroxymethyl)cyclopropyl]-1H-indol-5-yl}-2,2-difluoro-7-methyl-6,7-dihydro-2H-furo[2,3-f][1,3]benzodioxole-7-carboxamide]
2060 nM | 72% | 2580 nM | 67% | CC(C)(CO)c1nc2cc(NC(=O)[C@@]3(C)COc4cc5c(cc43)OC(F)(F)O5)c(F)cc2n1C[C@@H](O)CO [Example 137, (7R)—N-{1-[(2R)-2,3-dihydroxypropyl]-6-fluoro-2-(1-hydroxy-2-methylpropan-2-yl)-1H-benzimidazol-5-yl}-2,2-difluoro-7-methyl-6,7-dihydro-2H-furo[2,3-f][1,3]benzodioxole-7-carboxamide]
1330 nM | 157% | 550 nM | 78% | COc1ccc2c(c1)O[C@@H](c1cnc(C(=O)O)cn1)C[C@H]2NC(=O)[C@@]1(C)COc2cc3c(cc21)OC(F)(F)O3 [Example 144, 5-[(2R,4R)-4-{[(7R)-2,2-difluoro-7-methyl-6,7-dihydro-2H-furo[2,3-f][1,3]benzodioxole-7-carbonyl]amino}-7-methoxy-3,4-dihydro-2H-1-benzopyran-2-yl]pyrazine-2-carboxylic acid]
3 nM | 118% | 0.831 nM | 91% | C[C@]1(C(=O)N[C@@H]2C[C@H](c3ccc(C(=O)O)cn3)Oc3cc(OC(F)(F)F)ccc32)COc2cc3c(cc21)OC(F)(F)O3 [Example 145, 6-[(2R,4R)-4-{[(7R)-2,2-difluoro-7-methyl-6,7-dihydro-2H-furo[2,3-f][1,3]benzodioxole-7-carbonyl]amino}-7-(trifluoromethoxy)-3,4-dihydro-2H-1-benzopyran-2-yl]pyridine-3-carboxylic acid]
335 nM | 153% | 160 nM | 89% | COc1ccc2c(c1)O[C@@H](c1ccc(C(=O)O)nc1)C[C@H]2NC(=O)[C@@]1(C)COc2cc3c(cc21)OC(F)(F)O3 [Example 146, 5-[(2R,4R)-4-{[(7R)-2,2-difluoro-7-methyl-6,7-dihydro-2H-furo[2,3-f][1,3]benzodioxole-7-carbonyl]amino}-7-methoxy-3,4-dihydro-2H-1-benzopyran-2-yl]pyridine-2-carboxylic acid]
2200 nM | 44% | 830 nM | 24% | C[C@]1(C(=O)N[C@H]2C[C@@H]([C@H]3CC[C@H](C(=O)O)CC3)Oc3cc(OC(F)(F)F)ccc32)COc2cc3c(cc21)OC(F)(F)O3 [Example 149, trans-4-[(2S,4S)-4-{[(7R)-2,2-difluoro-7-methyl-6,7-dihydro-2H-furo[2,3-f][1,3]benzodioxole-7-carbonyl]amino}-7-(trifluoromethoxy)-3,4-dihydro-2H-1-benzopyran-2-yl]cyclohexane-1-carboxylic acid]
26 nM | 145% | 10 nM | 94% | C[C@]1(C(=O)N[C@@H]2C[C@H]([C@H]3CC[C@H](C(=O)O)CC3)Oc3cc(OC(F)(F)F)ccc32)COc2cc3c(cc21)OC(F)(F)O3 [Example 150, trans-4-[(2R,4R)-4-{[(7R)-2,2-difluoro-7-methyl-6,7-dihydro-2H-furo[2,3-f][1,3]benzodioxole-7-carbonyl]amino}-7-(trifluoromethoxy)-3,4-dihydro-2H-1-benzopyran-2-yl]cyclohexane-1-carboxylic acid]
12 nM | 132% | 7.6 nM | 93% | C[C@]1(C(=O)N[C@@H]2C[C@H](c3ccc(C(=O)O)cn3)Oc3cc(OC(F)F)ccc32)COc2cc3c(cc21)OC(F)(F)O3 [Example 151, 6-[(2R,4R)-7-(difluoromethoxy)-4-{[(7R)-2,2-difluoro-7-methyl-6,7-dihydro-2H-furo[2,3-f][1,3]benzodioxole-7-carbonyl]amino}-3,4-dihydro-2H-1-benzopyran-2-yl]pyridine-3-carboxylic acid]
92 nM | 137% | 20 nM | 102% | COc1ccc2c(c1)O[C@@H]([C@H]1CC[C@H](C(=O)O)CC1)C[C@H]2NC(=O)[C@@]1(C)COc2cc3c(cc21)OC(F)(F)O3 [Example 155, trans-4-[(2R,4R)-4-{[(7R)-2,2-difluoro-7-methyl-6,7-dihydro-2H-furo[2,3-f][1,3]benzodioxole-7-carbonyl]amino}-7-methoxy-3,4-dihydro-2H-1-benzopyran-2-yl]cyclohexane-1-carboxylic acid]
44 nM | 136% | 5 nM | 85% | C[C@]1(C(=O)N[C@@H]2C[C@H]([C@H]3CC[C@H](C(=O)O)CC3)Oc3cc(OC(F)F)ccc32)COc2cc3c(cc21)OC(F)(F)O3 [Example 160, trans-4-[(2R,4R)-7-(difluoromethoxy)-4-{[(7R)-2,2-difluoro-7-methyl-6,7-dihydro-2H-furo[2,3-f][1,3]benzodioxole-7-carbonyl]amino}-3,4-dihydro-2H-1-benzopyran-2-yl]cyclohexane-1-carboxylic acid]
